Measurements: patent US6288091A, “Antiherpes virus compounds and methods for their preparation and use” (Boehringer Ingelheim Ltd., priority 1999, dated 2001)

Experiments:
HSV-1 strain F or KOS = experiment: Inhibition of herpes simplex virus (HSV-1) replication in cell culture (BHK-21 cells, glycoprotein C ELISA); assay type: cell-based
Procedure, shortened: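 Replication readout: ELISA for HSV-1 late glycoprotein C (mAb C11, peroxidase-OPD, 450 nm) on glutaraldehyde-fixed cells. Monolayers (~50,000 cells/well) were infected with strain F or KOS (MOI 0.05 PFU/cell), then incubated 24 h at 37° with compound in 2% FBS α-MEM. EC50 derived from % inhibition.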

[1] = Inhibition of HCMV replication, plaque reduction assay (PRA, Hs-68 cells); assay type: cell-based, Human Cytomegalovirus (HCMV); settings: human, Group 1 Table 5 entries, read-out: Cytotoxic at this concentration (footnote *, PRA CMV)
Procedure, shortened: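 Hs-68 monolayers (80–90% confluent) were infected with ~50 PFU HCMV AD169 for 2 h at 37°, then given compound in DMEM/5% inactivated FBS, refreshed after 4 days and kept 4 more days. Plaques were counted after formaldehyde fixation and crystal violet staining. EC50 derives from percent plaque reduction versus untreated wells.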

[2] = Human alphaherpesvirus 1, BHK-21, Group 2 Table 1 entries
[3] = Human alphaherpesvirus 1, BHK-21, Group 1 Table 6 entries
[4] = Human alphaherpesvirus 1, BHK-21, Group 1 Table 5 entries

| SMILES | EC50 (HSV-1 strain F or KOS; [2]) [nM] | EC50 (HSV-1 strain F or KOS; [3]) [nM] | also measured |
| --- | --- | --- | --- |
| CCCCN(CCCC)C(=O)C(=O)Nc1ccc(-c2csc(N)n2)cc1 [Example 1, N-{4-(2-Amino-4-thiazolyl)phenyl}-N',N'-dibutylethanediamide] |  |  | EC50 (HSV-1 strain F or KOS; Human alphaherpesvirus 1, BHK-21, Group 2 Table 2 entries): 2900 nM |
| CCCCN(CCCC)C(=O)Nc1ccc(-c2csc(N)n2)cc1 [Example 1, N-{4-(2-Amino-4-thiazolyl)phenyl}-N,N-dibutylurea] | 800 |  |  |
| Nc1nc(-c2ccc(NC(=O)[C@@H]3CCC(=O)N3Cc3ccccc3)cc2)cs1 [Example 2] |  | 2600 |  |
| Nc1nc(-c2ccc(NC(=O)[C@H]3CCC(=O)N3CC3CCCCC3)cc2)cs1 [Example 3] |  | 2100 |  |
| CN(CCc1ccccn1)C(=O)Nc1ccc(-c2csc(N)n2)cc1 [Example 4] | 1400 |  |  |
| Nc1nc(-c2ccc(NC(=O)[C@@H]3CCCN3C(=O)c3ccccc3)cc2)cs1 [Example 5] |  | 170 |  |
| Nc1nc(-c2ccc(NC(=O)[C@@H]3CCCN3C(=O)C3CCCCC3)cc2)cs1 [Example 6] |  | 16 |  |
| CC(C)(C)OC(=O)N1CCC[C@@H]1C(=O)Nc1ccc(-c2csc(N)n2)cc1 [Example 8] |  | 1800 |  |
| Nc1nc(-c2ccc(NC(=O)[C@H]3CCCN3C(=O)c3ccccc3)cc2)cs1 [Example 9] |  | 590 |  |
| CN(C(=O)OC(C)(C)C)[C@@H](Cc1ccccc1)C(=O)Nc1ccc(-c2csc(N)n2)cc1 [Example 10] |  |  | EC50 (HSV-1 strain F or KOS; [4]): 59 nM |
| Nc1nc(-c2ccc(NC(=O)[C@H]3CCCN3C(=O)C3CCCCC3)cc2)cs1 [Example 10] |  | 25 |  |
| CCCC(CCC)NC(=O)Nc1ccc(-c2csc(N)n2)cc1 [Example 11] | 8000 |  |  |
| Nc1nc(-c2ccc(NC(=O)[C@H](Cc3ccccc3)N(Cc3ccccc3)C(=O)C3CCCCC3)cc2)cs1 [Example 11] |  |  | EC50 (HSV-1 strain F or KOS; [4]): 510 nM |
| CC(C)(C)NC(=O)Nc1ccc(-c2csc(N)n2)cc1 [Example 12] | 4400 |  |  |
| CN(CCc1ccccn1)C(=O)Nc1ccc(-c2csc(NC(=O)OC(C)(C)C)n2)cc1 [Example 14] | 3200 |  |  |
| CCCCN(CCCC)C(=O)Nc1ccc(-c2csc(NC(=O)OC(C)(C)C)n2)cc1 [Example 15] | > 6000 |  |  |
| CC(C)(C)CC(=O)N[C@@H](Cc1ccccc1)C(=O)Nc1ccc(-c2csc(N)n2)cc1 [Example 19] |  |  | EC50 (HSV-1 strain F or KOS; [4]): 40 nM; MCC at 192 h [1]: 21 µM |
| Nc1nc(-c2ccc(NC(=O)[C@H](Cc3ccccc3)NS(=O)(=O)N3CCOCC3)cc2)cs1 [Example 25] |  |  | EC50 (HSV-1 strain F or KOS; [4]): 100 nM |
